pIC50: −log10 of the molar value.

Chain of Cannabinoid receptor 1 (P21554 whole entry): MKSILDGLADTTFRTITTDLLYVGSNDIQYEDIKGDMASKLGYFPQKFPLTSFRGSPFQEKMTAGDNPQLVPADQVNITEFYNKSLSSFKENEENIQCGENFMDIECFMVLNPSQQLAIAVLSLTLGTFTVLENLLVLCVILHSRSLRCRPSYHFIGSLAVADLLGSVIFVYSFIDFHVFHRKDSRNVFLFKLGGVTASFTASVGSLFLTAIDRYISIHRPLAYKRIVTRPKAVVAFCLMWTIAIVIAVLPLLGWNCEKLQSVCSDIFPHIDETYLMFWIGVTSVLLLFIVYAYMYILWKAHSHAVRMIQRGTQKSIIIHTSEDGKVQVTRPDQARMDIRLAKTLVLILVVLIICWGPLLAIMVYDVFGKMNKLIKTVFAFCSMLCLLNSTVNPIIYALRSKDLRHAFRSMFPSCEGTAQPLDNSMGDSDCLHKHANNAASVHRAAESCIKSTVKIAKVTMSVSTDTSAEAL

The test concerns the target Cannabinoid receptor 1 (Homo sapiens, UniProt P21554). Kind of test: Displacement of [3H][…] from human recombinant cannabinoid CB1 receptor expressed in CHO cells. It counts as cell-based.
On to `CC(C)(Oc1ccc(C(F)(F)F)cn1)C(=O)N1CC(Cc2ccc(Cl)cc2)(c2ccccc2)C1`, for which the pIC50 was 5.89.
As for `C[C@H](NC(=O)C(C)(C)Oc1ccc(C(F)(F)F)cn1)[C@@H](Cc1ccc(Cl)cc1)c1cccc(Br)c1` (racemic), the figure is 9.23; as for `CC(C)(Oc1ccc(C(F)(F)F)cn1)C(=O)NC(C)(C)[C@@H](Cc1ccc(Cl)cc1)c1cccc(Br)c1` (racemic), 7.66; as for `CC(C)(Oc1ccc(C(F)(F)F)cn1)C(=O)NCC(C)(Cc1ccc(Cl)cc1)c1cccc(Br)c1` (racemic), 6.47.
The result for `CC(NC(=O)C(C)(C)Oc1ccc(C(F)(F)F)cn1)C(C)(Cc1ccc(Cl)cc1)c1cccc(Br)c1` (racemic) reads 7.60; that for `CC(C)(Oc1ccc(C(F)(F)F)cn1)C(=O)N1CCC(Cc2ccc(Cl)cc2)(c2ccccc2)C1` (racemic), 6.09.
Regarding `CC(C)(Oc1ccc(C(F)(F)F)cn1)C(=O)N1CCCC(Cc2ccc(Cl)cc2)(c2ccccc2)C1` (racemic), the pIC50 is 5.70.
The result for `CC(NC(=O)C(C)(C)Oc1ccc(C(F)(F)F)cn1)C(C)(Cc1ccc(Cl)cc1)c1cccc(Br)c1` (stereo in doubt; 5b) reads 6.59.

Values taken from ChEMBL document CHEMBL1208788 (Bioorg Med Chem Lett, 2010).
